From patent US20120156333A1, “STABILIZED BETA CRYPTOXANTHIN-CONTAINING WATER AND THE USE THEREOF” (ARKRAY, INC., priority 2010, published 2012)

How the values were obtained:
[1] = β cryptoxanthin stabilizing test, Example 3A (water from Citrus unshiu concentrated liquid with additive L-ascorbic acid, stored at 40° C.); type: physicochemical; details: 0.0015 parts by mass β cryptoxanthin (concentrated liquid) in water
Method: The prepared concentrated liquid derived from Citrus unshiu and water were mixed. Thus, a mixed solution was prepared. The mixing was conducted so that a mass ratio between β cryptoxanthin contained in the concentrated liquid and the mixed water became […] (0.0015 parts by mass of β cryptoxanthin with respect to 100 parts by mass of finally obtained β cryptoxanthin-containing water). Vitamin C (L-ascorbic acid) was added to the mixed solution, which was then mixed by stirring. Thus, β cryptoxanthin-containing waters were prepared. The total amounts of L-ascorbic acid in the respective β cryptoxanthin-containing waters were set to 0.005, 0.01, 0.02, 0.1, and 0.2 parts by mass with respect to 100 parts by mass of entire β cryptoxanthin-containing water by adding vitamin C. 50 g of five types of the β cryptoxanthin-containing waters were filled in the respective brown bottles. Thereafter, the brown bottles were subjected to a heat sterilization treatment under the condition at 90° C. for 30 minutes, which were then stored at 40° C. Sampling was conducted on a storage start date and after two months from the same. The respective amounts of β cryptoxanthin in samples were measured in the same manner as in Example 1A. Then, assuming that the amount of β cryptoxanthin on the storage start date was 100%, residual ratios of β cryptoxanthin were determined.

[2] = Storage stability at 20° C. and 25° C. calculated by Arrhenius equation, Example 4A; type: physicochemical; details: for possible storage period in the stable state: β cryptoxanthin-containing waters of Example 1A, 2A, and 3A, from storage at 40° C. for 2 months
Method: With respect to each of the β cryptoxanthin-containing waters prepared in Examples 1A, 2A, and 3A, storage stability at 20° C. and 25° C. was determined.
The storage stability was calculated by the following method with reference to the publication below. Conditions were described in the publication, hereby incorporated herein by reference. • Sumie Yoshioka (1995), “Iyakuhin no Anzensei—yoriyoi Kaihatsu to Hyoka notameno Kiso kara Jissai made—(Drug safety—principles and practices for improving development and evaluation—), Nankodo Co., Ltd.
Specifically, a graph of FIG. 185 on page 95 of the publication was cited. FIG. 1 is an Arrhenius plot of degradation of thiamine hydrochloride in a vitamin complex liquid agent, the Y axis indicates log Kobs (day^−1), and the X axis indicates 1/T (K^1). The stable periods were calculated based on the activation energy for degradation of thiamine hydrochloride in the vitamin complex liquid agent, shown in the graph.
In FIG. 1, the Y axis is indicated by not ln, but log. Therefore log Kobs was converted into ln k.
Then, −Ea/R and ln A were calculated from the ln k and 1/T (K^−1) on the X axis of FIG. 1 based on the Arrhenius equation represented by the formula (1) below.

[3] = β cryptoxanthin stabilizing test, Example 1B (water from paste, varied β cryptoxanthin concentration, stored at 45° C.); type: physicochemical
Method: The prepared paste derived from Citrus unshiu and water were mixed. Thus, β cryptoxanthin-containing waters were prepared. In the mixing, concentrations of the β cryptoxanthin were set to predetermined parts by mass with respect to 100 parts by mass of a combination of the water and components contained in the water. The predetermined parts by mass were 0.0031, 0.0044, 0.0062, 0.0086, 0.0176, and 0.0244 parts by mass. Thus, six types of β cryptoxanthin-containing waters each having a different concentration of the β cryptoxanthin were prepared. Each of the β cryptoxanthin-containing waters was sufficiently stirred. Thereafter 90 g of the resultant β cryptoxanthin-containing water was filled in an aluminum pouch, which was then sterilized under the condition at 85° C. for 30 minutes. As a comparative example, two types of β cryptoxanthin-containing waters were prepared in the same manner as described above except that the concentrations of the β cryptoxanthin were set to 0.0011 and 0.0016 parts by mass.
Six types of the β cryptoxanthin-containing waters of the example and two types of β cryptoxanthin-containing waters of the comparative example were stored at 45° C. for one month. Sampling was conducted on a storage start date and after one month from the storage start date. The respective amounts of β cryptoxanthin in samples were measured by HPLC as shown below. Then, assuming that the amount of β cryptoxanthin on the storage start date was 100%, residual ratios of β cryptoxanthin were determined.
The samples were treated at 70° C. for 30 minutes under alkaline conditions before being subjected to HPLC. By this treatment, β cryptoxanthin in the samples was saponified and was converted to a free form. After the treatment, the samples were subjected to a liquid-liquid extraction and were then concentrated. Concentrated samples thus obtained were used as samples for HPLC.
In the measurements of the amounts of β cryptoxanthin by HPLC, a HPLC system to which a column (J′sphere ODS-M80 (product name) with 250×4.6 mm I.D, produced by YMC Co., Ltd.) had been connected was used, and absorbances at 455 nm were measured by a UV detector (L-4200H (product name), produced by Hitachi Ltd.). Conditions of the column were as follows. • Mobile phase: acetonitrile/tetrahydrofuran (volume ratio: 95/5) containing 0.1% acetic acid and 50 ppm of α-tocopherol • Flow rate: 1.0 mL/minute • Column temperature: 55° C.

[4] = β cryptoxanthin stabilizing test, Example 2B (water from powder, varied β cryptoxanthin concentration, stored at 45° C.); type: physicochemical
Method: The prepared powder derived from Citrus unshiu and water were mixed. Thus, β cryptoxanthin-containing waters were prepared. In the mixing, concentrations of the β cryptoxanthin were set to predetermined parts by mass with respect to 100 parts by mass of a combination of the water and components contained in the water. The predetermined parts by mass were 0.0005, 0.0010, 0.0022, 0.0031, 0.0060, and 0.0079 parts by mass. Thus, six types of β cryptoxanthin-containing waters each having a different concentration of the β cryptoxanthin were prepared. Each of the β cryptoxanthin-containing waters was sufficiently stirred. Thereafter 90 g of the resultant β cryptoxanthin-containing water was filled in an aluminum pouch, which was then sterilized under the condition at 85° C. for 30 minutes. Six types of the β cryptoxanthin-containing waters of the example were stored at 45° C. for one month. Sampling was conducted on a storage start date and after one month from the storage start date. The respective amounts of β cryptoxanthin in samples were measured by HPLC in the same manner as in Example 1B. Then, assuming that the amount of β cryptoxanthin on the storage start date was 100%, residual ratios of β cryptoxanthin were determined.

[5] = compound of structural formula (1); stated as known; cited from earlier work

## CC1=C(/C=C/C(C)=C/C=C/C(C)=C/C=C/C=C(C)/C=C/C=C(C)/C=C/C2=C(C)C[C@@H](O)CC2(C)C)C(C)(C)CCC1 [β cryptoxanthin]
[1]; additive L-ascorbic acid 0.005 parts by mass
  Residual ratio of β cryptoxanthin Storage for two months (%): 64.3%
[1]; additive L-ascorbic acid 0.01 parts by mass
  Residual ratio of β cryptoxanthin Storage for two months (%): 64.9%
[1]; additive L-ascorbic acid 0.02 parts by mass
  Residual ratio of β cryptoxanthin Storage for two months (%): 99.1%
[1]; additive L-ascorbic acid 0.1 parts by mass
  Residual ratio of β cryptoxanthin Storage for two months (%): 100%
[1]; additive L-ascorbic acid 0.2 parts by mass
  Residual ratio of β cryptoxanthin Storage for two months (%): 37.9%
[2]; Example 4A, normal temperature (20° C. to 25° C.)
  storage in a stable state at normal temperature: two years or more
[2]; 20° C.
  possible storage period in the stable state: about 34 months
[2]; 25° C.
  possible storage period in the stable state: about 16.2 months
[3]; Comparative Example, β cryptoxanthin 0.0011 parts by mass (paste) in water
  Residual ratio of β cryptoxanthin Storage for one month (%): 52.5%
[3]; Comparative Example, β cryptoxanthin 0.0016 parts by mass (paste) in water
  Residual ratio of β cryptoxanthin Storage for one month (%): 59.0%
[3]; Example, β cryptoxanthin 0.0031 parts by mass (paste) in water
  Residual ratio of β cryptoxanthin Storage for one month (%): 84.8%
[3]; Example, β cryptoxanthin 0.0044 parts by mass (paste) in water
  Residual ratio of β cryptoxanthin Storage for one month (%): 87.8%
[3]; Example, β cryptoxanthin 0.0062 parts by mass (paste) in water
  Residual ratio of β cryptoxanthin Storage for one month (%): 97.0%
[3]; Example, β cryptoxanthin 0.0086 parts by mass (paste) in water
  Residual ratio of β cryptoxanthin Storage for one month (%): 95.3%
[3]; Example, β cryptoxanthin 0.0176 parts by mass (paste) in water
  Residual ratio of β cryptoxanthin Storage for one month (%): 93.2%
[3]; Example, β cryptoxanthin 0.0244 parts by mass (paste) in water
  Residual ratio of β cryptoxanthin Storage for one month (%): 105.9%
[4]; β cryptoxanthin 0.0005 parts by mass (powder) in water
  Residual ratio of β cryptoxanthin Storage for one month (%): 5.3%
[4]; β cryptoxanthin 0.0010 parts by mass (powder) in water
  Residual ratio of β cryptoxanthin Storage for one month (%): 45.6%
[4]; β cryptoxanthin 0.0022 parts by mass (powder) in water
  Residual ratio of β cryptoxanthin Storage for one month (%): 75.5%
[4]; β cryptoxanthin 0.0031 parts by mass (powder) in water
  Residual ratio of β cryptoxanthin Storage for one month (%): 82.4%
[4]; β cryptoxanthin 0.0060 parts by mass (powder) in water
  Residual ratio of β cryptoxanthin Storage for one month (%): 97.9%
[4]; β cryptoxanthin 0.0079 parts by mass (powder) in water
  Residual ratio of β cryptoxanthin Storage for one month (%): 101.1%
[5]
  solubility in water: poorly soluble in water
